Test results as given in US20250222045A1, “BIFIDOBACTERIUM LONGUM SUBSP. INFANTIS, MICROBIAL AGENT AND USE THEREOF” (GUANGZHOU JIYAN COSMETICS TECHNOLOGY CO., LTD., priority 2024, published 2025).

Tests used:
suckling pig skin = experiment: Exfoliation on excised suckling pig skin (Franz cell), total protein of detached keratinocytes; conditions: 50 μL, 24 h, 32 °C
Protocol: <1> Formulation of cleaning solution (0.1% Triton X-100): 0.1 mL of Triton X-100 was weighed and dissolved in 100 mL of PBS to formulate 0.1% Triton X-100 solution. <2> Formulation of sodium hydroxide solution (12 M): 4.8 g of sodium hydroxide solid was weighed, and added with deionized water to make up to 10 mL, and formulate 12 M sodium hydroxide solution. <1> After being thawed and cleaned, pig skin was fixed between a supply chamber and a receiving chamber of Franz cell, with stratum corneum of the skin facing the supply chamber, and a dermal side facing the receiving chamber. Into the receiving chamber, 7.0 mL of a receiving liquid was added. After suckling pig skin was stretched and fixed well, into the receiving chamber, 1.5 mL of the receiving liquid (PBS) was added through a sample collector, and air was exhausted, so as to make the dermis of the skin be in close contact with the receiving liquid. <2> Samples (as shown in TABLE 24) were added to the skin surface in the supply chamber, where 50 μL of the samples were added to the surface of the pig skin (a PBS buffer solution was added to the surface of the control group as blank control). The samples were evenly spread radially from a central part of the skin towards an edge, and an exposed area of the samples was 3.14 cm^2. Each sample had three parallel replicates. […] Keratinocytes in the cleaning solution were precipitated, supernatant was discarded, and precipitate was re-suspended with 0.5 mL of deionized water. <2> Into the re-suspended liquid, 25 μL of a sodium hydroxide (12 M) solution was added, the keratinocytes were lysed for 30 min in a boiling water bath, and 25 μL of concentrated hydrochloric acid (12 M) was added to neutralize lysis solution. <3> The total protein content was detected according to instructions of a BCA protein assay kit. […] The total protein content in the lysis solution was directly proportional to the quantity of detached keratinocytes. […] GraphPad Prism was applied for plotting, and results were expressed as Mean±SD. Comparison between the groups was statistically analyzed using t-test. […]

type III collagen = experiment: Excised skin tissues, combined UVA and UVB irradiation: type III collagen (IHC); conditions: ex vivo skin, 0.1%
Protocol: (§1) Tissue treatment: Freshly obtained skin tissues were immersed into 75% alcohol to be cleaned for 30 s, and then cleaned in a sterile PBS buffer solution for three times. After the cleaning was finished, the skin was cut into tissue blocks of 24±2 mm^2, with the epidermis facing upwards and the dermis facing downwards, and put into culture moulds; and then the culture moulds were transferred into 6-well plates, with each well being added with 3.7 mL of the culture solution, and cultured in the CO2 incubator (37° C., 5% CO2), with the solution being changed every day.
(§2) Dosing: After the excised skin tissues were cultured for 2 days, irradiation and dosing were started with reference to test groups and corresponding treatment conditions in the table. Irradiation dosages were UVA (30 J/cm^2) and UVB (50 mJ/cm^2). The irradiation was continuously performed for 4 days. After each time of irradiation was completed, the culture solution was replaced with a fresh culture solution, and a dosing treatment was performed. The positive control (VC+VE) was dosed below a liquid surface, and the test sample was does on a surface, with each group being in triplicate. […]
(§3) Statistical analysis of results: GraphPad Prism was applied for plotting, and results were expressed as Mean±SD. Comparison between the groups was statistically analyzed using t-test. […]

CPD = experiment: DNA damage repair on UVB-irradiated 3D epidermal skin model, CPD immunohistochemistry; format: cell-based; conditions: Filtrate 5%, Lysate 5%, Filtrate + lysate 5%, Retinol 0.1%, Bifida ferment lysate 5%; for CPD Positive cell Rate (%): BC 0.00%, NC 72.14%, smaller values are better; for CPD fluorescence intensity, Down-regulation Rate: vs NC
Protocol: <1> According to test groups, models were transferred into 6-well plates (added with 0.9 mL of an EpiGrowth culture solution of corresponding groups in advance), and numbers of the test groups were marked on the 6-well plates.
<2> UVB irradiation (a radiation dosage was 600 mJ/cm^2) was performed on the groups requiring UVB irradiation according to the test groups (as shown in TABLE 40). After the irradiation, a sample working solution was evenly distributed on surfaces of the models, and continued to be incubated in a CO2 incubator (37° C., 5% CO2) for 24 h.
<3> After incubation was finished, test substances remaining on surfaces of the models were cleaned with sterile PBS, and residual liquid inside and outside the models was wiped off with a sterile cotton swab.
The models for detection were fixed using 4% paraformaldehyde. After 24 h of fixation, immunohistochemical detection was performed, photographs were taken under a microscope and observed, and pictures were collected and analyzed.
Inhibition rate/down-regulation rate (%)=(negative control group−sample)/negative control group×100%
GraphPad Prism was applied for plotting, and results were expressed as Mean±SD. Comparison between the groups was statistically analyzed using t-test. Statistical analysis was two-tailed. P<0.05 is considered to have a significant difference, and P<0.01 is considered to have an extremely significant difference.
(1) CPD: When a body is exposed to exogenous UV radiation, DNA damage may occur, and this damage may induce body aging. If such DNA damage is not repaired in time, symptoms such as aging of the body may occur.

collagen fiber = experiment: Excised skin tissues, combined UVA and UVB irradiation: collagen fiber (Masson staining); conditions: ex vivo skin, 0.1%
Protocol: as §1
Dosing: After the excised skin tissues were cultured for 2 days, irradiation and dosing were started with reference to test groups and corresponding treatment conditions in the table. Irradiation dosages were UVA (30 J/cm^2) and UVB (50 mJ/cm^2). The irradiation was continuously performed for 4 days. […]
Detection of collagen fiber: the skin tissues having undergone the dosing were fixed using 4% paraformaldehyde. […] Slicing result was recovered, photographed using a microscope, and analyzed using Image-Pro Plus image processing software. […]
as §3

[1] = test system: 3D epidermal skin model (EpiKuits®); experiment: Epidermal atrophy on UVB-irradiated 3D epidermal skin model, tissue morphology H&E, sunburn cells; format: cell-based; conditions: Filtrate 5%, Lysate 5%, Filtrate + lysate 5%, Retinol 0.1%, Bifida ferment lysate 5%; for Sunburn cells: EpiKutis 3D epidermal model, UVB 600 mJ/cm^2, then 24 h, H&E, BC 0, NC 10, WY14643 50 μM
Protocol: [table] <1> According to test groups, models were transferred into 6-well plates (added with 0.9 mL of an EpiGrowth culture solution of corresponding groups in advance), and numbers of the test groups were marked on the 6-well plates. <2> UVB irradiation (a radiation dosage was 600 mJ/cm^2) was performed on the groups requiring UVB irradiation according to the test groups (as shown in TABLE 40). […] <3> After incubation was finished, test substances remaining on surfaces of the models were cleaned with sterile PBS, and residual liquid inside and outside the models was wiped off with a sterile cotton swab. The models for detection of tissue morphology were fixed using 4% paraformaldehyde. After 24 h of fixation, H&E staining detection was performed, photographs were taken under a microscope and observed, and pictures were collected and analyzed. Inhibition rate/down-regulation rate (%)=(negative control group−sample)/negative control group×100% GraphPad Prism was applied for plotting, and results were expressed as Mean±SD. Comparison between the groups was statistically analyzed using t-test. Statistical analysis was two-tailed. P<0.05 is considered to have a significant difference, and P<0.01 is considered to have an extremely significant difference. (2) Epidermal atrophy: Tissue morphology is physiological structure analysis of appearance of tissues after HE staining. The ability of the test substance to resist UVB can be evaluated by analyzing thickness changes of epidermis and growth of four layers of cells on the surface after use of the test substance.

hyaluronic acid = experiment: Excised skin tissues, combined UVA and UVB irradiation: hyaluronic acid (immunofluorescence); conditions: ex vivo skin, 0.1%
Protocol: as §1, §2, §3

elastin = experiment: Excised skin tissues, combined UVA and UVB irradiation: elastin (Victoria Blue staining); conditions: ex vivo skin, 0.1%
Protocol: as §1, §2, §3

type IV collagen = experiment: Excised skin tissues, combined UVA and UVB irradiation: type IV collagen (IHC); conditions: ex vivo skin, 0.1%
Protocol: as §1, §2, §3

type XVII collagen = experiment: Excised skin tissues, combined UVA and UVB irradiation: type XVII collagen (IHC); conditions: ex vivo skin, 0.1%
Protocol: as §1, §2, §3

[2] = BC 0.326, Filtrate 3%, Mandelic acid 5%, Salicylic acid 2%
[3] = 30 J/cm^2 UVA + 50 mJ/cm^2 UVB, IHC

O=C(O)c1ccccc1O [salicylic acid]
Protein Concentration Mean (exfoliated keratinocytes) (suckling pig skin; [2]): 0.347 mg/mL | Protein Concentration Mean (exfoliated keratinocytes) (suckling pig skin; BC 0.326, PC 10% salicylic acid): 0.555 mg/mL

CC1=C(/C=C/C(C)=C/C=C/C(C)=C/CO)C(C)(C)CCC1 [Retinol]
Type III collagen Relative IOD Mean (type III collagen; [3]): 0.76 | Type III collagen Increase Rate (type III collagen; UVA + UVB, vs negative control): 28.81% | CPD Positive cell Rate (%) (CPD; EpiKutis 3D epidermal model, UVB 600 mJ/cm^2, then 24 h, PC WY14643 50 μM): 58.31% | CPD Positive cell Rate (%) (CPD; EpiKutis 3D epidermal model, UVB 600 mJ/cm^2, then 24 h, PC WY14643 50 μM, listed as retinol): 58.31% | CPD fluorescence intensity, IOD Mean (CPD; EpiKutis 3D epidermal model, UVB 600 mJ/cm^2, then 24 h, NC 227349.69, PC WY14643 50 μM): 20503.43 | CPD fluorescence intensity, Down-regulation Rate (CPD): 90.98% | CPD fluorescence intensity, Down-regulation Rate (CPD; listed as retinol): 90.98% | Collagen fiber Relative Area Mean (collagen fiber; 30 J/cm^2 UVA + 50 mJ/cm^2 UVB, Masson staining): 0.96 | Collagen fiber Increase Rate (collagen fiber; UVA + UVB, vs negative control): 50.00% | Sunburn cells [1]: 0 | Sunburn cells, Inhibition Rate ([1]; vs NC): 100% | Hyaluronic acid Relative IOD Mean (hyaluronic acid; 30 J/cm^2 UVA + 50 mJ/cm^2 UVB, IF): 0.69 | Hyaluronic acid Increase Rate (hyaluronic acid; UVA + UVB, vs negative control): 56.82% | Elastin Relative IOD Mean (elastin; 30 J/cm^2 UVA + 50 mJ/cm^2 UVB, Victoria staining): 1.19 | Elastin Increase Rate (elastin; UVA + UVB, vs negative control): 260.61% | Type IV collagen Relative IOD/area Mean (type IV collagen; [3]): 0.76 | Type IV collagen Increase Rate (type IV collagen; UVA + UVB, vs negative control): 26.67% | Type XVII collagen Relative IOD Mean (type XVII collagen; [3]): 0.69 | Type XVII collagen Increase Rate (type XVII collagen; UVA + UVB, vs negative control): 176.00%

Cc1cccc(Nc2cc(Cl)nc(SCC(=O)O)n2)c1C [WY14643]
Sunburn cells [1]: 3

O=C(O)C(O)c1ccccc1 (centres unmarked) [Mandelic acid]
Protein Concentration Mean (exfoliated keratinocytes) (suckling pig skin; [2]): 0.448 mg/mL
